Measurements: EP0082731A1, “The use of peptides as medicaments” (NOVO INDUSTRI A/S, priority 1981, dated 1983)

Tested on: pigs
Test: Experiment C1: effect on plasma glucose in pigs during intravenous glucose infusion
Assay type: in vivo, pigs (Danish breed/Yorkshire)
Conditions: for Plasma glucose: pigs, cross-over, i.v. glucose 0.7 g/kg/h + glucagon(1-21) 100 µg/kg/h 0-120 min
Description: The effect of glucagon(1-21) on plasma glucose levels was investigated during an intravenous glucose infusion. 4 female pigs (Danish breed/Yorkshire) weighing 30 kg (+/- 3 kg) were dosed with glucose (0.7 g/kg/h) as an intravenous infusion and with the same glucose infusion + infusion of glucagon(-1-21) (100µg/kg/h) from 0 to 120 minutes. The experiment was carried out as a cross-over experiment. The pigs were infused through intravenous ear catheters and blood samples were taken from the other ear at the times 0, 15, 30, 45, 60, 75, 90, 105, and 120 minutes. Glucose was analyzed by the hexokinase method and the blood glucose values are stated in Table IV below.

glucagon-(1-21)-heneicosapeptide (HSQGTFTSDYSKYLDSRRAQD; Glucagon; UniProt P01275 53-73, looked up, fragment) [glucagon(1-21)]
glucose tolerance (glucose primed pigs, infused intravenously): improves the glucose tolerance | Plasma glucose (time 0 min): 0.9 mg/mL | Plasma glucose (time 15 min): 1.5 mg/mL | Plasma glucose (time 30 min): 1.7 mg/mL | Plasma glucose (time 45 min): 1.8 mg/mL | Plasma glucose (time 60 min): 1.9 mg/mL | Plasma glucose (time 75 min): 1.8 mg/mL | Plasma glucose (time 90 min): 2.0 mg/mL | Plasma glucose (time 105 min): 1.9 mg/mL | Plasma glucose (time 120 min): 1.9 mg/mL
